How the values were obtained:
Enterobacter cloacae [1] = assay: Antibacterial activity against Enterobacter cloacae 17-6 assessed as reduction in bacterial growth; type: functional
Klebsiella pneumoniae [2] = assay: Antibacterial activity against ESBLs negative Carbapenem-sensitive Klebsiella pneumoniae 17-19 assessed as reduction in bacterial growth; type: functional
Enterobacter cloacae [3] = assay: Bactericidal activity against Enterobacter cloacae 17-2 assessed as reduction in bacterial growth in the presence of avibactam; type: functional
Escherichia coli [4] = assay: Bactericidal activity against ESBLs positive Carbapenem-sensitive Escherichia coli 17-3 assessed as reduction in bacterial growth; type: functional
Klebsiella pneumoniae [5] = assay: Antibacterial activity against Multidrug resistant Klebsiella pneumoniae KR 15-2 assessed as reduction in bacterial growth; type: functional
Enterobacter cloacae [6] = assay: Bactericidal activity against Enterobacter cloacae 17-3 assessed as reduction in bacterial growth in the presence of avibactam; type: functional
Klebsiella aerogenes [7] = assay: Antibacterial activity against Enterobacter aerogenes 15-5 assessed as reduction in bacterial growth in the presence of Avibactam; type: functional
Klebsiella pneumoniae [8] = assay: Antibacterial activity against ESBLs positive Carbapenem-sensitive Klebsiella pneumoniae 17-7 assessed as reduction in bacterial growth in the presence of Avibactam; type: functional
Klebsiella aerogenes [9] = assay: Antibacterial activity against Enterobacter aerogenes 15-3 assessed as reduction in bacterial growth
Klebsiella pneumoniae [10] = assay: Antibacterial activity against ESBLs positive Carbapenem-sensitive Klebsiella pneumoniae 17-6 assessed as reduction in bacterial growth
Enterobacter cloacae [11] = assay: Antibacterial activity against Enterobacter cloacae 17-8 assessed as reduction in bacterial growth in the presence of Avibactam; type: functional
Klebsiella pneumoniae [12] = assay: Antibacterial activity against ESBLs positive Carbapenem-sensitive Klebsiella pneumoniae 17-8 assessed as reduction in bacterial growth in the presence of Avibactam; type: functional
Pseudomonas aeruginosa [13] = assay: Bactericidal activity against Carbapenem- resistant Pseudomonas aeruginosa 17-8 assessed as reduction in bacterial growth in the presence of avibactam; type: functional
Klebsiella pneumoniae [14] = assay: Antibacterial activity against ESBLs negative Carbapenem-sensitive Klebsiella pneumoniae 17-16 assessed as reduction in bacterial growth
Pseudomonas aeruginosa [15] = assay: Bactericidal activity against carbapenem-sensitive Pseudomonas aeruginosa 17-7 assessed as reduction in bacterial growth; type: functional
Pseudomonas aeruginosa [16] = assay: Antibacterial activity against Carbapenem- sensitive Pseudomonas aeruginosa 17-26 assessed as reduction in bacterial growth in the presence of Avibactam; type: functional
Klebsiella pneumoniae [17] = assay: Antibacterial activity against ESBLs positive Carbapenem-sensitive Klebsiella pneumoniae 17-1 assessed as reduction in bacterial growth in the presence of Avibactam; type: functional
Escherichia coli [18] = assay: Antibacterial activity against ESBLs positive Carbapenem-sensitive Escherichia coli 17-6 assessed as reduction in bacterial growth in the presence of Avibactam; type: functional
Pseudomonas aeruginosa [19] = assay: Bactericidal activity against carbapenem-sensitive Pseudomonas aeruginosa 17-9 assessed as reduction in bacterial growth; type: functional
Acinetobacter baumannii [20] = assay: Antibacterial activity against Carbapenem- resistant Acinetobacter baumannii 17-2 assessed as reduction in bacterial growth in the presence of Avibactam; type: functional
Pseudomonas aeruginosa [21] = assay: Antibacterial activity against Carbapenem- resistant Pseudomonas aeruginosa 17-5 assessed as reduction in bacterial growth
Acinetobacter baumannii [22] = assay: Antibacterial activity against Carbapenem- resistant Acinetobacter baumannii 17-9 assessed as reduction in bacterial growth in the presence of Avibactam; type: functional
Klebsiella pneumoniae [23] = assay: Antibacterial activity against ESBLs positive Carbapenem-sensitive Klebsiella pneumoniae 17-3 assessed as reduction in bacterial growth in the presence of Avibactam; type: functional
Klebsiella pneumoniae [24] = assay: Antibacterial activity against Carbapenem- resistant Klebsiella pneumoniae KR 15-8 assessed as reduction in bacterial growth in the presence of Avibactam; type: functional
Acinetobacter baumannii [25] = assay: Antibacterial activity against Carbapenem- resistant Acinetobacter baumannii 17-2 assessed as reduction in bacterial growth
Klebsiella pneumoniae [26] = assay: Antibacterial activity against Multidrug resistant Klebsiella pneumoniae KR 15-2 assessed as reduction in bacterial growth in the presence of Avibactam; type: functional
Pseudomonas aeruginosa [27] = assay: Antibacterial activity against Carbapenem- resistant Pseudomonas aeruginosa 17-5 assessed as reduction in bacterial growth in the presence of Avibactam; type: functional
Escherichia coli [28] = assay: Bactericidal activity against ESBLs negative Carbapenem--sensitive Escherichia coli 17-7 assessed as reduction in bacterial growth; type: functional
Klebsiella aerogenes [29] = assay: Bactericidal activity against Enterobacter aerogenes 15-3 assessed as reduction in bacterial growth in the presence of avibactam; type: functional
Klebsiella pneumoniae [30] = assay: Antibacterial activity against Multidrug resistant Klebsiella pneumoniae KR 15-1 assessed as reduction in bacterial growth; type: functional
Klebsiella pneumoniae [31] = assay: Bactericidal activity against Klebsiella pneumoniae ATCC BAA-1705 assessed as reduction in bacterial growth; type: functional
Klebsiella pneumoniae [32] = assay: Antibacterial activity against ESBLs negative Carbapenem-sensitive Klebsiella pneumoniae 17-20 assessed as reduction in bacterial growth in the presence of Avibactam; type: functional
Escherichia coli [33] = assay: Antibacterial activity against Escherichia coli ATCC 35218 assessed as reduction in bacterial growth; type: functional
Escherichia coli [34] = assay: Antibacterial activity against ESBLs negative Carbapenem-sensitive Escherichia coli 17-7 assessed as reduction in bacterial growth in the presence of Avibactam; type: functional
Enterobacter cloacae [35] = assay: Antibacterial activity against Enterobacter cloacae 17-7 assessed as reduction in bacterial growth in the presence of Avibactam; type: functional
Klebsiella pneumoniae [36] = assay: Antibacterial activity against ESBLs negative Carbapenem-sensitive Klebsiella pneumoniae 17-17 assessed as reduction in bacterial growth in the presence of Avibactam; type: functional
Pseudomonas aeruginosa [37] = assay: Antibacterial activity against Carbapenem- sensitive Pseudomonas aeruginosa 17-22 assessed as reduction in bacterial growth in the presence of Avibactam; type: functional
Klebsiella pneumoniae [38] = assay: Antibacterial activity against Carbapenem- resistant Klebsiella pneumoniae KR 15-8 assessed as reduction in bacterial growth
Klebsiella pneumoniae [39] = assay: Antibacterial activity against Multidrug resistant Klebsiella pneumoniae KR 15-3 assessed as reduction in bacterial growth; type: functional
Pseudomonas aeruginosa [40] = assay: Bactericidal activity against carbapenem-sensitive Pseudomonas aeruginosa 17-29 assessed as reduction in bacterial growth in the presence of avibactam; type: functional
Klebsiella pneumoniae [41] = assay: Antibacterial activity against Carbapenem- resistant Klebsiella pneumoniae KR 15-9 assessed as reduction in bacterial growth in the presence of Avibactam; type: functional
Klebsiella pneumoniae [42] = assay: Antibacterial activity against ESBLs positive Carbapenem-sensitive Klebsiella pneumoniae 17-14 assessed as reduction in bacterial growth in the presence of Avibactam; type: functional
Klebsiella aerogenes [43] = assay: Antibacterial activity against Enterobacter aerogenes 17-1 assessed as reduction in bacterial growth in the presence of Avibactam; type: functional
Klebsiella aerogenes [44] = assay: Bactericidal activity against Enterobacter aerogenes 17-1 assessed as reduction in bacterial growth; type: functional
Enterobacter cloacae [45] = assay: Antibacterial activity against Enterobacter cloacae 17-10 assessed as reduction in bacterial growth in the presence of Avibactam; type: functional
Klebsiella aerogenes [46] = assay: Antibacterial activity against Enterobacter aerogenes 15-3 assessed as reduction in bacterial growth in the presence of Avibactam; type: functional
Enterobacter cloacae [47] = assay: Bactericidal activity against Enterobacter cloacae 17-10 assessed as reduction in bacterial growth; type: functional
Escherichia coli [48] = assay: Antibacterial activity against Escherichia coli ATCC 25922 assessed as reduction in bacterial growth in the presence of Avibactam; type: functional

C[C@@H](O)[C@H]1C(=O)N2C(C(=O)O)=C(S[C@@H]3CN[C@H](C(=O)N(C)C)C3)[C@H](C)[C@H]12 [MEROPENEM]
< 0.03 µg/mL: MIC (Enterobacter cloacae [1]) | MIC (Klebsiella pneumoniae [2])

CC(C)(O/N=C(\C(=O)N[C@@H]1C(=O)N2C(C(=O)[O-])=C(C[n+]3ccccc3)CS[C@H]12)c1csc(N)n1)C(=O)O [CEFTAZIDIME]
0.25 µg/mL: MBC (Enterobacter cloacae [6]) | MBC (Escherichia coli [28])
0.06 µg/mL: MIC (Escherichia coli [33])
2 µg/mL: MBC (Escherichia coli [4]) | MIC (Klebsiella pneumoniae [12]) | MIC (Klebsiella pneumoniae [14]) | MIC (Klebsiella pneumoniae [23]) | MIC (Klebsiella pneumoniae [26]) | MIC (Enterobacter cloacae [35]) | MIC (Klebsiella pneumoniae [41]) | MIC (Klebsiella pneumoniae [42])
0.5 µg/mL: MIC (Klebsiella aerogenes [7]) | MIC (Escherichia coli [18]) | MBC (Pseudomonas aeruginosa [19]) | MIC (Pseudomonas aeruginosa [37])
1 µg/mL: MBC (Enterobacter cloacae [3]) | MBC (Pseudomonas aeruginosa [15]) | MIC (Pseudomonas aeruginosa [16]) | MIC (Klebsiella pneumoniae [17]) | MIC (Klebsiella aerogenes [43]) | MIC (Enterobacter cloacae [45])
32 µg/mL: MIC (Pseudomonas aeruginosa [27])
64 µg/mL: MIC (Pseudomonas aeruginosa [21])
> 64 µg/mL: MIC (Klebsiella pneumoniae [5]) | MIC (Klebsiella aerogenes [9]) | MIC (Acinetobacter baumannii [25]) | MIC (Klebsiella pneumoniae [30]) | MBC (Klebsiella pneumoniae [31]) | MIC (Klebsiella pneumoniae [38]) | MIC (Klebsiella pneumoniae [39])
8 µg/mL: MIC (Acinetobacter baumannii [20]) | MIC (Acinetobacter baumannii [22])
0.125 µg/mL: MIC (Enterobacter cloacae [11]) | MIC (Klebsiella pneumoniae [32]) | MIC (Escherichia coli [34]) | MIC (Klebsiella pneumoniae [36]) | MIC (Escherichia coli [48])
16 µg/mL: MIC (Klebsiella pneumoniae [10]) | MBC (Pseudomonas aeruginosa [13]) | MBC (Klebsiella aerogenes [44])
4 µg/mL: MIC (Klebsiella pneumoniae [8]) | MIC (Klebsiella pneumoniae [24]) | MBC (Klebsiella aerogenes [29]) | MBC (Pseudomonas aeruginosa [40]) | MIC (Klebsiella aerogenes [46]) | MBC (Enterobacter cloacae [47])

Nc1nc(/C(=N/OCc2cc(=O)c(O)cn2O)C(=O)N[C@@H]2C(=O)N3C(C(=O)O)=CCS[C@H]23)cs1
64 µg/mL: MIC (Pseudomonas aeruginosa [21]) | MBC (Klebsiella aerogenes [44])
0.5 µg/mL: MIC (Klebsiella pneumoniae [10]) | MIC (Klebsiella pneumoniae [12]) | MIC (Klebsiella pneumoniae [14]) | MIC (Escherichia coli [18]) | MIC (Escherichia coli [33]) | MIC (Escherichia coli [34]) | MIC (Klebsiella pneumoniae [42]) | MIC (Enterobacter cloacae [45])
4 µg/mL: MIC (Klebsiella pneumoniae [23]) | MIC (Klebsiella pneumoniae [24]) | MBC (Escherichia coli [28])
2 µg/mL: MBC (Escherichia coli [4]) | MIC (Klebsiella pneumoniae [8]) | MIC (Enterobacter cloacae [11]) | MIC (Enterobacter cloacae [1]) | MIC (Enterobacter cloacae [35]) | MIC (Klebsiella pneumoniae [41]) | MIC (Klebsiella aerogenes [43])
> 64 µg/mL: MIC (Klebsiella pneumoniae [5]) | MIC (Klebsiella aerogenes [9]) | MIC (Acinetobacter baumannii [25]) | MIC (Klebsiella pneumoniae [30]) | MBC (Klebsiella pneumoniae [31]) | MIC (Klebsiella pneumoniae [38]) | MIC (Klebsiella pneumoniae [39])
0.25 µg/mL: MIC (Klebsiella pneumoniae [17]) | MIC (Escherichia coli [48])
> 8 µg/mL: MBC (Enterobacter cloacae [47])
0.125 µg/mL: MIC (Klebsiella pneumoniae [36])
0.06 µg/mL: MIC (Klebsiella pneumoniae [32])
1 µg/mL: MIC (Klebsiella aerogenes [7]) | MBC (Pseudomonas aeruginosa [15]) | MIC (Pseudomonas aeruginosa [16]) | MIC (Klebsiella pneumoniae [26]) | MIC (Pseudomonas aeruginosa [37])
16 µg/mL: MBC (Pseudomonas aeruginosa [19]) | MIC (Acinetobacter baumannii [20]) | MIC (Acinetobacter baumannii [22]) | MBC (Klebsiella aerogenes [29]) | MIC (Klebsiella aerogenes [46])
≤ 0.03 µg/mL: MIC (Klebsiella pneumoniae [2])
32 µg/mL: MBC (Pseudomonas aeruginosa [13]) | MIC (Pseudomonas aeruginosa [27])
8 µg/mL: MBC (Enterobacter cloacae [3]) | MBC (Enterobacter cloacae [6]) | MBC (Pseudomonas aeruginosa [40])

— ChEMBL document CHEMBL4813981, “Synthesis and in vitro antibacterial activity of new aminothiazole-oximepiperidone cephalosporins” (2021)
